Where no end group is shown, it is not given here.

Data on 1 substance can be found in US20090074672A1, “Tumor Boundary Imaging” (SRI International, priority 2007, published 2009).

This assay concerns fibrin gel. Put plainly: TG substrate viability: cross-linking into fibrin gel. As to conditions: in the presence of Ca2+. Format: biochemical. As for the experimental part: TG Substrate Viability Assays. Viability was tested by: (1) cross-linking into fibrin gel, and (2) reacting with fibrinogen in the presence of Guinea pig liver TG. […] In the presence of Ca2+, cross-linked fibrin clots were formed.

Take “peptide: TG substrate peptide NQEQVSP (SEQ ID NO:01) conjugated to FITC or HiLyte Fluor 750 via N-hydroxysuccinimide chemistry (also: FITC or HiLyte Fluor 750 conjugated via NHS chemistry)”: the “cross-linking into fibrin clot (fluorescence intensity)” value was “crosslinked into the fibrin clot”.
